Measured values: ChEMBL document CHEMBL3593213, “Isolation of a Cyclic Depsipetide, Aspergillicin F, and Synthesis of Aspergillicins with Innate Immune-Modulating Activity” (J Nat Prod, 2015)
Active and inactive are the calls of the source. No cut-off for these calls is given here.

Assays:
Drosophila [1] = assay: Cytotoxicity against Drosophila S2 assessed as reduction in cell viability at 0.1 to 100 ug/ml by WST8 dye based assay
Drosophila [2] = assay: Innate immunity-regulating activity in Drosophila Dpt-lacZ larvae assessed as suppression of immune response by measuring DAP-type peptidoglycan-mediated Dpt-lacZ activation at 0.1 to 100 ug/ml incubated at 25 degC for 12 hrs by beta-galactosidase reporter gene assay; assay type: functional, organism-based
Drosophila [3] = assay: Innate immunity-regulating activity in Drosophila Dpt-lacZ larvae assessed as suppression of immune response by measuring DAP-type peptidoglycan-mediated Dpt-lacZ activation at 10 ug/ml incubated at 25 degC for 12 hrs by beta-galactosidase reporter gene assay; assay type: functional
Drosophila [4] = assay: Innate immunity-regulating activity in Drosophila Dpt-lacZ larvae assessed as suppression of immune response by measuring DAP-type peptidoglycan-mediated Dpt-lacZ activation at 1 ug/ml incubated at 25 degC for 12 hrs by beta-galactosidase reporter gene assay; assay type: functional, organism-based

Row | Compound | inhibition (Drosophila [3]) | further results
1 | CC[C@@H](C)[C@@H]1NC(=O)[C@H](Cc2ccc(OC)cc2)N(C)C(=O)[C@@H]2CCCN2C(=O)[C@@H]2CCCN2C(=O)[C@@H]([C@H](C)CC)NC(=O)[C@@H](NC(C)=O)[C@@H](C)OC1=O | – | Activity (Drosophila [1]): Non-toxic; inhibition (Drosophila [2]): Dose-dependent effect; inhibition at 10 µg/mL (Drosophila [3]): 37%
2 | CC[C@@H](C)[C@H]1NC(=O)[C@@H](NC(C)=O)[C@@H](C)OC(=O)[C@H]([C@@H](C)CC)NC(=O)[C@H](Cc2ccc(OC)cc2)N(C)C(=O)[C@@H]2CCCN2C(=O)[C@@H]2CCCN2C1=O | inactive | –
3 | CC[C@@H](C)[C@H]1NC(=O)[C@@H](NC(C)=O)[C@@H](C)OC(=O)[C@H](C(C)C)NC(=O)[C@H](Cc2ccc(OC)cc2)N(C)C(=O)[C@@H]2CCCN2C(=O)[C@@H]2CCCN2C1=O | inactive | –
4 | CC[C@@H](C)[C@H]1NC(=O)[C@@H](NC(C)=O)[C@@H](C)OC(=O)[C@H](C(C)C)NC(=O)[C@H](Cc2ccccc2)N(C)C(=O)[C@@H]2CCCN2C(=O)[C@@H]2CCCN2C1=O | inactive | –
5 | CCC[C@H]1NC(=O)[C@@H](NC(C)=O)[C@@H](C)OC(=O)[C@H](C(C)C)NC(=O)[C@H](Cc2ccc(OC)cc2)N(C)C(=O)[C@@H]2CCCN2C(=O)[C@@H]2CCCN2C1=O | inactive | –
6 | COc1cc(O)c2c(c1)/C=C/C[C@H](O)[C@H](O)[C@@H](O)/C=C/C[C@H](C)OC2=O | – | inhibition (Drosophila [4]): Active
7 | CC[C@@H](C)[C@H]1NC(=O)[C@@H](NC(C)=O)[C@@H](C)OC(=O)[C@H](C(C)C)NC(=O)[C@H](Cc2ccccc2)NC(=O)[C@@H]2CCCN2C(=O)[C@@H]2CCCN2C1=O | inactive | –
